Experimental data reported in patent US11167059B2, “Compositions with reactive ingredients, and wound dressings, apparatuses, and methods” (KCI Licensing, Inc., priority 2010, dated 2021).

Legend:
[1] = compatibility of suspension agents with Ca(OCl)2 (OCl− concentration by UV-Vis); type: physicochemical; details: about 13 mg Ca(OCl)2 in methylene chloride solution of agent, about one hour in the dark
Description: FIG. 6B depicts a chart illustrating the correlation of hypochlorite concentration from the UV absorbance of FIG. 6A with corresponding concentrations obtained by Iodine titration. FIG. 6C depicts a chart of OCl^− concentration in solutions with certain of the present suspension agents, including a control of only Ca(OCl)2 in solution (of methylene chloride), Ca(OCl)2 in PCL-1 solution having 0.5 g of PCL per 100 mL of methylene chloride; Ca(OCl)2 in PCL-2 solution having 1.0 g of PCL per 100 mL of methylene chloride; and Ca(OCl)2 in solution with TWEEN 80 (also known as polysorbate 80) having 0.1 g of TWEEN 80 per 10 g of methylene chloride. […] For each solution, approximately 13 mg of Ca(OCl)2 was added to each methylene chloride solution and the solution was placed in the dark for a period of about one hour. Then 5 mL of distilled water was added to each solution, and each was shaken to mix its respective ingredients. […] After settling, for each solution, one milliliter of the aqueous layer was removed and mixed with 10 mL of 0.1 N NaOH (e.g., to increase the pH to ensure all hypochlorous acid is converted to hypochlorite for complete capture of active chlorine), and evaluated with UV-Vis spectroscopy to determine the concentration of OCl (e.g., to determine whether the OCl— had degraded or been consumed by the polymer).

[2] = tested on: Methicillin-resistant Staphylococcus aureus (MRSA); assay: inhibition zone on MRSA monolayer in petri dish; type: cell-based; details: 30 μg control dose, 18 hours at 37° C.
Description: Experiments were performed for some of the present reactive agents (and/or resulting solutions) to investigate their antibacterial properties. In a first experiment, an even monolayer of Methicillin-resistant Staphylococcus aureus (MRSA) bacteria was spread across the surface of each of several petri dishes, and either a 30 μg control dose of Vancomycin, or an 8 mm×5 mm piece of sponge was placed on each petri dish. The pieces of sponge included: a piece of polyurethane foam coated with a silver (Ag), a piece of dry silicone foam, a piece of silicone foam impregnated with a Polyhexanide solution, a piece of silicone foam deposited with Ca(ClO)2 salt, and a piece of silicone foam deposited with NaClO salt. After placement of the pieces of foam, saline was dropped onto the foams deposited with Ca(ClO)2 and NaClO salts, respectively, Each petri dish was incubated for eighteen (18) hours at 37° C., and the clear area in which the bacteria had been killed (inhibition zone) was measured. […] In a second, similar experiment, the monolayer of bacteria was E. Coli instead of MRSA, and the remainder of the second experiment was substantially the same as the first. The results of the second experiment were also similar. […] From these preliminary experiments, the inventors believe the present reactive agents and the resulting solutions to have effective antimicrobial properties. […]

Row | Compound | compatibility of suspension agent with Ca(OCl)2 [1] | inhibition zone [2]
1 | polysorbate 80 [TWEEN 80] | compatible with Ca(OCl)2 | –
2 | CN[C@H](CC(C)C)C(=O)N[C@H]1C(=O)N[C@@H](CC(N)=O)C(=O)N[C@H]2C(=O)N[C@H]3C(=O)N[C@H](C(=O)N[C@H](C(=O)O)c4cc(O)cc(O)c4-c4cc3ccc4O)[C@H](O)c3ccc(c(Cl)c3)Oc3cc2cc(c3O[C@@H]2O[C@H](CO)[C@@H](O)[C@H](O)[C@H]2O[C@H]2C[C@](C)(N)[C@H](O)[C@H](C)O2)Oc2ccc(cc2Cl)[C@H]1O [Vancomycin] | – | 200 mm^2
